Measurements from patent US20250236611A1, “PYRAZOLE COMPOUNDS AND USES THEREOF” (ALCON INC., priority 2021, published 2025).

Assays:
Format in all cases: biochemical
Details in all cases: 10 nM JAK enzyme, 800 nM Abl peptide, room temperature 75 min
TYK2 = TYK2 (Homo sapiens, UniProt P29597); assay: JAK assay (KINASE-GLO luminescent kinase assay), TYK2
JAK2 = JAK2 (Homo sapiens, UniProt O60674); assay: JAK assay (KINASE-GLO luminescent kinase assay), JAK2
Summary of the method: (§1)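 The 2× mix gave 10 nM kinase, 800 nM Abl peptide and 2 µM DTT, and ATP was added as a 4× stock (2 µM), in HEPES pH 7.5 buffer. Compounds ran as an 11-point series, 100 µM–10 pM final in 2.5% DMSO, for 75 min at RT. Remaining ATP was read by luminescence against DMSO control, and 4-parameter IC50s were converted to Ki by Cheng-Prusoff.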

JAK3 = molecular target: T1, JAK3 (Homo sapiens, UniProt P52333); assay: JAK assay (KINASE-GLO luminescent kinase assay), JAK3
T1 sequence (P52333 1-1124): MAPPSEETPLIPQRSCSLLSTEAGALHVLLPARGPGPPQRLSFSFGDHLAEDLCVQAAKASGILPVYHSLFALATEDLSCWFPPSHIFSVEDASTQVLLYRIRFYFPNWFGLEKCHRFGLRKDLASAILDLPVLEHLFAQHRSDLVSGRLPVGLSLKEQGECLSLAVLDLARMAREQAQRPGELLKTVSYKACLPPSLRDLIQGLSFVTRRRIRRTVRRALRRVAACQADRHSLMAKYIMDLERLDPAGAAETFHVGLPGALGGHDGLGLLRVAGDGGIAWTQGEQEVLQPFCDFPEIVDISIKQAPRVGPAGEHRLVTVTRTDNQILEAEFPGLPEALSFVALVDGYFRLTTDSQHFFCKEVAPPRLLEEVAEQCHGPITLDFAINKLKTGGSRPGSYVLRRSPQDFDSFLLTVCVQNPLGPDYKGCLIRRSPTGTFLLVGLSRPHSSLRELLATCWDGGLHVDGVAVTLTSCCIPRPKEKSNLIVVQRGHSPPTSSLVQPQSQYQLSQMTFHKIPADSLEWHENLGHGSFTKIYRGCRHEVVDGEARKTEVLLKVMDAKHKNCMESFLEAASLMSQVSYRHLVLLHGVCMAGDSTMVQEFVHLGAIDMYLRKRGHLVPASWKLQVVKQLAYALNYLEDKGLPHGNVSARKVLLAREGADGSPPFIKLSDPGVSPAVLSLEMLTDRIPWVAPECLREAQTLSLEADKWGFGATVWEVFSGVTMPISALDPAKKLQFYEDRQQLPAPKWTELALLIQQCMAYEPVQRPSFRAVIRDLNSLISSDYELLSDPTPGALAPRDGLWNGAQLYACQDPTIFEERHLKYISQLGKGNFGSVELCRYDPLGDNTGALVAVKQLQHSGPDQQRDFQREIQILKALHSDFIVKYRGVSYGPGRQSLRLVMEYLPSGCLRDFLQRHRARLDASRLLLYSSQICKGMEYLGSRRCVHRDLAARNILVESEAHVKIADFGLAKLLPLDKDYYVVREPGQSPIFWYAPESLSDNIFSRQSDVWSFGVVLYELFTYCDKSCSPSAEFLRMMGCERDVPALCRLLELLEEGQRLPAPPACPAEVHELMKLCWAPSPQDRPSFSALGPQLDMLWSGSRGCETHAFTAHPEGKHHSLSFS
Summary of the method: as §1

JAK1 = JAK1 (Homo sapiens, UniProt P23458); assay: JAK assay (KINASE-GLO luminescent kinase assay), JAK1
Sequence of JAK1 (P23458 whole entry): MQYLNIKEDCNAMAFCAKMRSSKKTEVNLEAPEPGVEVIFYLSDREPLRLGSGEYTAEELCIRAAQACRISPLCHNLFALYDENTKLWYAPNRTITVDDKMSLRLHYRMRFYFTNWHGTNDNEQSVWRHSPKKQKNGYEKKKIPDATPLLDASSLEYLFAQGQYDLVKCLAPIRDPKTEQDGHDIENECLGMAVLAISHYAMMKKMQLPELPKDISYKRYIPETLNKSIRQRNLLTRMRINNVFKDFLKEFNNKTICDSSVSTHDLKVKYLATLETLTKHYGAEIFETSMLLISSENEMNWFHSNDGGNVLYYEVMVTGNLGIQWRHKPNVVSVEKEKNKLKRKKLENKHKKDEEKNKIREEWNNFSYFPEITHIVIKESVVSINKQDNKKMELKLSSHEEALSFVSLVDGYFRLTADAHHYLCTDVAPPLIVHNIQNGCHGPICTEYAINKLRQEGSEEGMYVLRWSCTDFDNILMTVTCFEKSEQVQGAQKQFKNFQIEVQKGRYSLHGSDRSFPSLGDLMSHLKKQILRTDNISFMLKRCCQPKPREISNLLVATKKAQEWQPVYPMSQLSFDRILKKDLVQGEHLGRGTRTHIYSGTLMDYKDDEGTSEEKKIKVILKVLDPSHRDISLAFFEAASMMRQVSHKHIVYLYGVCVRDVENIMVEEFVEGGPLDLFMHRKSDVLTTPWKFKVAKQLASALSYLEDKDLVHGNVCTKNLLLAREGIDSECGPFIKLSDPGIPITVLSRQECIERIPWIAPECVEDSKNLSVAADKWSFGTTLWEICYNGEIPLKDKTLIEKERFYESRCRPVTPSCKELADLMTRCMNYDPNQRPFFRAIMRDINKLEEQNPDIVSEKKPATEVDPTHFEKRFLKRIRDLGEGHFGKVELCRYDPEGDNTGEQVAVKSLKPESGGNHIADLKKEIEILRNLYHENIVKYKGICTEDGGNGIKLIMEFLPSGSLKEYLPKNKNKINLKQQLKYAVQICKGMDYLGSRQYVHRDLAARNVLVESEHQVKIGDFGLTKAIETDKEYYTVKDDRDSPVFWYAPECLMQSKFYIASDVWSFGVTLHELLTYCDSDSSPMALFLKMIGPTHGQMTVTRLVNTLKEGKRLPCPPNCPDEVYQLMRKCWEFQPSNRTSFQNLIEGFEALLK
Summary of the method: as §1

Sequence of TYK2 (P29597 whole entry): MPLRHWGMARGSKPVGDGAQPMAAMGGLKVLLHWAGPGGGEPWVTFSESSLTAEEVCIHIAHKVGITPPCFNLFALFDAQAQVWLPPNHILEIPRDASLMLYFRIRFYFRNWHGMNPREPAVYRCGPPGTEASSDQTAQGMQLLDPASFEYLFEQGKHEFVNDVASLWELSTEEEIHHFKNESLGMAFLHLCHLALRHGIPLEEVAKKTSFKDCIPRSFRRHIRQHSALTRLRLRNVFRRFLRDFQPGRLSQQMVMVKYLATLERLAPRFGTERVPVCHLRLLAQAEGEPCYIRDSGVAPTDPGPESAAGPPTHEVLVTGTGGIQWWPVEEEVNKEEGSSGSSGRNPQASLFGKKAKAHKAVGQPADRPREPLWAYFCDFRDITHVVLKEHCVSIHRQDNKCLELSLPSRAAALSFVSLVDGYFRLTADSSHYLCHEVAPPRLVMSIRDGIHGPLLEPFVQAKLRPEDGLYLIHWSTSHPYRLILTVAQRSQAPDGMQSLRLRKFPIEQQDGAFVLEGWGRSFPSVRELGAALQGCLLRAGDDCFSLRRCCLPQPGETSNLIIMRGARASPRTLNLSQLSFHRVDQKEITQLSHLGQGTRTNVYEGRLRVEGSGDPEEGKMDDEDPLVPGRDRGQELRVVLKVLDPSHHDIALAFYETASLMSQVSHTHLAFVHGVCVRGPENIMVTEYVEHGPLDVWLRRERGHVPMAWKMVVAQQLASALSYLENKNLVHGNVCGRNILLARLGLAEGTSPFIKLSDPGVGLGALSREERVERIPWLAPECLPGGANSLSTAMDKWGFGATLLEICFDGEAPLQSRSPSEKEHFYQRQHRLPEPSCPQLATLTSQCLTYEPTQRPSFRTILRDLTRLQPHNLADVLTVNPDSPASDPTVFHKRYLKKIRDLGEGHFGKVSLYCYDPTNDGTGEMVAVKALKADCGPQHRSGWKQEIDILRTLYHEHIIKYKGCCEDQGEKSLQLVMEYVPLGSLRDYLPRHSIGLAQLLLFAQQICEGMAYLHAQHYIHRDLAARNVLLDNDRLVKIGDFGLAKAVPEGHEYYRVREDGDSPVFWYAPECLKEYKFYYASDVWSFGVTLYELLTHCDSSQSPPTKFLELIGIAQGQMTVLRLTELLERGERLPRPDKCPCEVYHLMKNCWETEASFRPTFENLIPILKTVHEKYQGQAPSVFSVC
Sequence of JAK2 (O60674 whole entry): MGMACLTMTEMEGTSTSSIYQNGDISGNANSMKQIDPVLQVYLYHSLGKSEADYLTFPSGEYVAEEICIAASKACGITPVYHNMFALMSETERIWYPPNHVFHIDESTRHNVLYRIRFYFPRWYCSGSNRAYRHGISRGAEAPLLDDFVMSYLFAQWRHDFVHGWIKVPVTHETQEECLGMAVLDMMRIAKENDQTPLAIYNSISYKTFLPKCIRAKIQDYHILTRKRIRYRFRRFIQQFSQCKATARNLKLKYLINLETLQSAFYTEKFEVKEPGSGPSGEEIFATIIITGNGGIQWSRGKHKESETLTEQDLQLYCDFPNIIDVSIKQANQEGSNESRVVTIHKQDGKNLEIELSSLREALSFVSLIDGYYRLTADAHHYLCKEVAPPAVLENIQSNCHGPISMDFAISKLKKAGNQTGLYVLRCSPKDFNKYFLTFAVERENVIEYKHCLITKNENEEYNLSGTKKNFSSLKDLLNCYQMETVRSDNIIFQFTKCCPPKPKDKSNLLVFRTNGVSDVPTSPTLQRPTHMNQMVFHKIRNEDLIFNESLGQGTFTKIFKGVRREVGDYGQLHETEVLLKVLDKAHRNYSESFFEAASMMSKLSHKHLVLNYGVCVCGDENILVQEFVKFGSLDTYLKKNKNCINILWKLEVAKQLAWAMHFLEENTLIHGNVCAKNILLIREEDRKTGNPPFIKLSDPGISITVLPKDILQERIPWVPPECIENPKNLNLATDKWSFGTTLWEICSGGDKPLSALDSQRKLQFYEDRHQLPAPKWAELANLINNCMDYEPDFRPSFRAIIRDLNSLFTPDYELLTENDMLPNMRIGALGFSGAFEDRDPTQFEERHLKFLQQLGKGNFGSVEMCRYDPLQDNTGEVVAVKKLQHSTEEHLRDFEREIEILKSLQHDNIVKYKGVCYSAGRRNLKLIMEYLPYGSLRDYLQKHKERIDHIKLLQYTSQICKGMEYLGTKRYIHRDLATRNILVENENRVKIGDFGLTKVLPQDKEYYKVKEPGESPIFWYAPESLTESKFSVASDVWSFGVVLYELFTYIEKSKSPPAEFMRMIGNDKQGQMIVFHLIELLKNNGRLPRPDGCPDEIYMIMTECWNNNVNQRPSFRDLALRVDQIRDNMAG

Compound | IC50 (TYK2) | IC50 (JAK2) | IC50 (JAK3) | IC50 (JAK1)
COC(=O)c1cc(Nc2ncc(C)c(-c3cnn(CCC#N)c3)n2)ccc1N1CCOCC1 [COC(═O)C1═C(C═CC(═C1)NC2═NC(═C] | < 10 nM | < 10 nM | < 10 nM | < 10 nM
CCS(=O)(=O)N1CC(CO)(Cn2cc(-c3nc(Nc4cc(C)ns4)ncc3Cl)cn2)C1 [CC[S](═O)(═O)N1CC(CO)] | < 100000 nM | < 1000 nM | < 100000 nM | < 1000 nM
Cc1cnc(Nc2ccc3c(c2)CN(C)C3)nc1-c1cnn(CC2(CF)CC2)c1 [CN1CC2═CC═C(NC3═NC(═C] | < 10 nM | < 10 nM | < 10 nM | < 10 nM
Cc1cnc(Nc2ccnc(OCCN(C)C)c2)nc1-c1cnn(CC2(CC#N)CC2)c1 [CN(C)CCOC1═CC(═CC═N1)NC2═NC(═C] | < 100 nM | < 10 nM | < 100 nM | < 100 nM
CC(C)(C)OC(=O)N1CC(C#N)(Cn2cc(-c3nc(Nc4ccc(C(N)=O)cc4)ncc3Cl)cn2)C1 [CC(C)(C)OC(═O)N1CC(C1)(C[N]2C═C] | < 100 nM | < 10 nM | < 100 nM | < 100 nM
